# According to patent US20240316196A1, “METHODS AND COMPOSITIONS FOR DIFFERENTIATION OF PLURIPOTENT STEM CELLS AND DERIVED NATURAL KILLER CELLS” (NUWACELL BIOTECHNOLOGIES CO., LTD., priority 2022, published 2024):
# Columns and labels:
# [1] = test system: hiPSCs; experiment: Directed differentiation of hiPSCs into HE (KDR+), HP (CD34+) and iNK (CD56+) cells, flow cytometry; type: cell-based, human; conditions: for output of CD34^+ HP cells / output of CD56^+ iNK cells: added during Stage 1-4 (XAV939 5 μM, SB431542 6 μM); for output of CD34^+ HP cells: Day 10, vs control without both (FIG. 8A); for output of CD56^+ iNK cells: Day 25, vs control without both (FIGS. 8B, 8C)
# Description: hiPSCs were prepared as described in CN108373998B. The effect of plate coating during Stage 2 on iNK differentiation was further evaluated. On Day −1, Embryoid body (EB) formation (Stage 1-1) was carried out by placing individualized hiPSCs in E8 medium containing 10 μM Blebbistatin in T25 flasks on a bellydancer and culture overnight. On Day 0, lateral mesoderm differentiation (Stage 1-2) was initiated by changing the medium to a Stage 1-2 differentiation medium comprising CD34A basal medium and supplemented with BMP4 (25 ng/mL), VEGF (15 ng/mL), bFGF (0.5 ng/mL) and CHIR99021 (4 μM) for 2 days. On Day 2, lateral mesoderm differentiation (Stage 1-3) continued for 1 day in a Stage 1-3 differentiation medium comprising CD34A basal medium and supplemented with BMP4 (25 ng/mL), VEGF (15 ng/mL) and bFGF (0.5 ng/mL) and CHIR99021 (4 μM). On Day 3, HE specification (Stage 1-4) was initiated by adding a Stage 1-4 differentiation medium comprising CD34A basal medium and supplemented with insulin (5 μg/mL), VEGF (15 ng/mL), bFGF (5 ng/mL), SB431542 (6 μM) for 1 day. On Day 4 (the end of Stage 1-4), HP differentiation (Stage 1-5) in was initiated by adding a Stage 1-5 differentiation medium comprising CD34A basal medium and supplemented with SCF (10 ng/mL), Flt3L (10 ng/mL), VEGF (15 ng/mL) and bFGF (5 ng/mL). To initiate the differentiation from HP cells into iNK cells (Stage 2), EBs of Day 11 were collected and seeded in 24-well-plates without matrix or coated with DLL4 and VCAM1, in a Stage 2 differentiation medium comprising NKSFM and supplemented with SCF (20 ng/mL), Flt3L (10 ng/mL), IL-7 (25 ng/mL), IL-3 (5 ng/mL), IL-15 (10 ng/mL) for 14 days. On Day 25 (Stage 2-wk2), derived cells were counted and stained with CD56-PE antibody, the percentage of CD56+ iNK cells was detected by flow cytometry. […] The differentiation from hPSCs to immature iNK cells was accomplished in only 26 days. Furthermore, the percentage of CD56+CD3−iNK cells at the end of Stage 2 is as high as 80.56% when differentiation was performed with NKSFM and DLL4/VCAM1.
# hiPSCs were prepared as described in CN108373998B. On Day −1, Embryoid body (EB) formation (Stage 1-1) was carried out by placing individualized hiPSCs in E8 medium containing 10 μM Blebbistatin in T25 flasks on a bellydancer and culture overnight. On Day 0, lateral mesoderm differentiation (Stage 1-2) was initiated by changing the medium to a Stage 1-2 differentiation medium comprising IF-4 basal medium and supplemented with BMP4 (25 ng/mL), VEGF (50 ng/mL), bFGF (0.5 ng/mL) and CHIR99021 (4 μM) for 2 days. On Day 2, lateral mesoderm differentiation (Stage 1-3) continued for 1 day in a Stage 1-3 differentiation medium comprising IF-4 basal medium and supplemented with BMP4 (25 ng/mL), VEGF (50 ng/mL) and bFGF (0.5 ng/mL) and CHIR99021 (1 μM). On Day 3, HE specification (Stage 1-4) was initiated by adding a Stage 1-4 differentiation medium comprising IF-4 basal medium and supplemented with VEGF (50 ng/mL), bFGF (5 ng/mL), and without or with XAV939 (5 μM) and/or SB431542 (6 μM) for 1 day. On Day 4, HP differentiation (Stage 1-5) was initiated by adding a Stage 1-5 differentiation medium comprising NKSFM and supplemented with SCF (50 ng/mL), Flt3L (10 ng/mL), VEGF (15 ng/mL) and bFGF (5 ng/mL) for 6 days. On Day 10 (the end of Stage 1), EBs were dissociated into single cells and stained with CD34-APC antibody (BD, #555824), the percentage of CD34^+ HP cells was detected by flow cytometry. To initiate the differentiation from HP cells into iNK cells (Stage 2), EBs were collected and seeded in 24-well-plates coated with matrix proteins, DLL4 and VCAM1, in a Stage 2 differentiation medium comprising NKSFM and supplemented with SCF (20 ng/mL), Flt3L (10 ng/mL), IL-7 (25 ng/mL), IL-3 (5 ng/mL), IL-2 (700 IU/mL), IL-15 (10 ng/mL) for 15 days. On Day 25 (the end of Stage 2), derived cells were counted and stained with CD56-PE antibody (BD, #555516), the percentage of CD56^+ iNK cells was detected by flow cytometry. […]
# [2] = test system: PBNK cells; experiment: Expansion of PBNK cells from PBMCs (NK cell expansion fold; CD56+CD3− % by flow cytometry); type: cell-based; conditions: NAM 0-5 mM in basal medium
# Description: The effect of the concentration of nicotinamide (NAM) in an exemplary basal medium on NK cell expansion was evaluated. The above basal medium comprised the following components: IMDM (Sigma): RPMI1640 (Gibco) (50%: 50%); about 1.3 ng/mL of Cupric sulfate, about 3 μM of Ferric sulfate, about 0.432 μg/mL of Zinc sulfate, about 1-50 ng/mL of Na Selenite, about 110 μg/mL of Sodium pyruvate, 0.1-20 μg/mL of Insulin, 1-200 μg/mL of Transferrin, about 1%(v/v) of GlutaMAX-1, 0.1-20 mg/mL of HSA, 1-400 μM of MTG, about 80 μg/mL of Ascorbic acid and indicated concentration of NAM. Peripheral blood mononuclear cells (PBMCs) were isolated by density gradient centrifugation using Ficoll-Paque. On Day 0, PBMCs were plated at 1×10^6 cells/mL in a 48-well-plate in the basal medium with NAM (either 0, 1, 2, 2.5, 3, 3.5, 4, or 5 mM) and stimulated with the following reagents for 3 days: immobilized CD16 antibody (Biolegend, 302014) (135 ng/cm^2), IL-2 (700 IU/mL), IL-15 (10 ng/mL) and OK432 (0.01 KE/mL). On day 3, cells were re-suspended in the above basal medium supplemented with IL-2 (700 IU/mL) and IL-15 (10 ng/mL). Fresh medium was added every other day to maintain cell density below 2×10^6 cells/mL. Cells were collect on Day 14 and stained with CD56-PE and CD3-PerCP-Cy5.5 antibodies, the percentage of CD56^+CD3^− NK cells was analyzed by flow cytometry.
# The effect of heparin sodium concentration in an exemplary NKSFM on NK cell expansion was also evaluated. NKSFM comprised the following components: IMDM (Sigma): DMEM/F12 (Gibco) (50%: 50%); about 20 μM of Ethanolamine, about 1-50 ng/mL of Na Selenite, about 110 μg/mL of Sodium pyruvate, 0.1-20 μg/mL of Insulin, 1-200 μg/mL of Transferrin, about 1%(v/v) of GlutaMAX-1, 0.1-20 mg/mL of Human serum albumin, 1-400 μM of MTG, about 80 μg/mL of Ascorbic acid, about 1-5 mM of NAM, 4%(v/v) of PLT, and indicated concentration of heparin sodium. PBMCs were isolated by density gradient centrifugation using Ficoll-Paque. On Day 0, PBMCs were plated at 1×10^6 cells/mL in a 48-well-plate in NKSFM with heparin sodium (0, 0.5, 1, 3, 10, 30, or 50 μg/mL) and stimulated with the following reagents for 3 days: immobilized CD16 antibody (Biolegend, 302014) (135 ng/cm^2), OK432 (0.01 KE/mL), NeoIL-2 (50 ng/mL), IL-12 (10 ng/mL), IL-18 (50 ng/mL). […] Cells were collect on Day 13 and stained with CD56-PE and CD3-PerCP-Cy5.5 antibodies, the percentage of CD56^+CD3^− NK cells was analyzed by flow cytometry. The specific lysis of K562 tumor cells by NK cells were assessed by CFSE/7-AAD cytotoxicity assay. […] After incubation for 4 hours, cells were stained with 7-AAD (Live/dead staining) and analyzed with flow cytometry.
# The effect of PLT percentage (v/v) in an exemplary NKSFM on NK cell expansion was evaluated. […]
# [3] = higher VEGF concentration during Stage 1-5
molecule,measurement,setting,value
Oc1nc(-c2ccc(C(F)(F)F)cc2)nc2c1CSCC2 [XAV939],output of CD34^+ HP cells,[1],significantly promotes
same,output of CD56^+ iNK cells,[1],significantly promotes
"NC(=O)c1cccnc1 [NAM, nicotinamide]","NK cell expansion fold, effect of concentration",[2]; Day 14 (FIG. 2A),significantly impacts
same,"percentage of CD56^+CD3^− NK cells, effect of concentration",[2]; Day 14 (FIG. 2B),minimal effects
VEGF,HP and iNK cell differentiation,"[1]; Example 12: higher concentration during Stage 1, especially Stage 1-2, 1-3 and 1-4 (Table 3.2, FIG. 12)",significantly improves
same,"percentage of KDR+ HE cells, effect of concentration","[1]; VEGF 15-100 ng/mL in Stage 1 substages (Table 3.1), Day 4 (FIG. 11A)",minimal effects
same,"percentage of CD34+ HP cells, effect of concentration","[1]; VEGF 15-100 ng/mL in Stage 1 substages (Table 3.1), Day 10 (FIG. 11B)",significantly impacts
same,"efficiency of further differentiation into iNK cells, effect of concentration","[1]; VEGF 15-100 ng/mL in Stage 1 substages (Table 3.1), Day 24 morphology (FIG. 11C)",significantly impacts
same,differentiation into HP cells and iNK cells,[1]; higher VEGF concentration during Stage 1-2 and Stage 1-3,generally beneficial
same,differentiation into HP cells,[1]; [3],generally beneficial
same,differentiation into iNK cells,[1]; [3],not into iNK cells
NC(=O)c1ccc(-c2nc(-c3ccc4c(c3)OCO4)c(-c3ccccn3)[nH]2)cc1 [SB431542],output of CD34^+ HP cells,[1],improvement in increasing CD34^+ HP cell production at a certain degree
same,output of CD56^+ iNK cells,[1],does not show any improvement
Cc1c[nH]c(-c2cnc(NCCNc3ccc(C#N)cn3)nc2-c2ccc(Cl)cc2Cl)n1 [CHIR99021],differentiation into CD34+ HP cells,"[1]; higher concentration during Stage 1-2 (5, 6, 7, 8 μM), Day 7 (FIG. 9A)",generally more advantageous
same,differentiation into CD56+ iNK cells,"[1]; higher concentration during Stage 1-2 (5, 6, 7, 8 μM), Day 24 (FIGS. 9B, 9C)",somewhat disadvantageous
same,differentiation into CD34+ HP cells,"[1]; lower concentration during Stage 1-3 (0-4 μM), Day 7 (FIG. 10A)",somewhat disadvantageous
same,differentiation into CD56+ iNK cells,"[1]; lower concentration during Stage 1-3 (0-4 μM), Day 24 (FIGS. 10B, 10C)",generally more advantageous
